Measured values published in ChEMBL document CHEMBL1151031, “Lipophilic bis-arylsulfonates as inhibitors of the CD4-gp120 interaction” (Bioorg Med Chem Lett, 1996).

Key:
[1] = Inhibition of gp120 binding to CEM cells in vitro.; assay type: functional, cell-based; details: ccrf-cem
[2] = Inhibition of HIV gp120 binding to CD4 receptor using ELISA assay; design: species or system Human immunodeficiency virus 1
CCRF-CEM [3] = assay: Compound was evaluated for the cytotoxicity against CEM cells; assay type: functional; details: Homo sapiens, read-out: CD50 (the source's name)
CCRF-CEM [4] = assay: Compound was evaluated for the inhibition of gp120 binding to monoclonal antibodies in CEM cells; Flat dose response; assay type: functional, cell-based, Homo sapiens

Row | Structure (SMILES) | IC50 [1] | IC50 [2] | IC50 (CCRF-CEM [4]) | CC50 (CCRF-CEM [3])
1 | O=S(=O)(O)c1ccc2c(C(=CC3CCCCCCCCC3)c3cccc4cc(S(=O)(=O)O)ccc34)cccc2c1 | 150 µM | > 400 µM | – | –
2 | O=S(=O)(O)c1ccc2c(C(=CCCc3ccc4ccccc4c3)c3cccc4cc(S(=O)(=O)O)ccc34)cccc2c1 | > 170 µM | > 350 µM | – | –
3 | CCCCC/C=C/C/C=C/CCCCCCC=C(c1cccc2cc(S(=O)(=O)O)ccc12)c1cccc2cc(S(=O)(=O)O)ccc12 | – | 56 µM | – | –
4 | C[C@]12CCC(C=C(c3cccc4cc(S(=O)(=O)O)ccc34)c3cccc4cc(S(=O)(=O)O)ccc34)CC1CC[C@@H]1[C@@H]2CC[C@]2(C)C(=O)CC[C@@H]12 (some centres undefined) | 35 µM | 107 µM | – | –
5 | C[C@@]12CCC[C@H]1[C@@H]1CCC3CC(C=C(c4cccc5cc(S(=O)(=O)O)ccc45)c4cccc5cc(S(=O)(=O)O)ccc45)CC[C@]3(C)[C@H]1CC2 (some centres undefined) | 17 µM | 26 µM | – | –
6 | CC(C)CCCC(C)[C@H]1CC[C@H]2[C@@H]3CCC4CC(CCC=C(c5cccc6ccc(S(=O)(=O)O)cc56)c5cccc6ccc(S(=O)(=O)O)cc56)CC[C@]4(C)[C@H]3CC[C@]12C (some centres undefined) | 7 µM | 10 µM | – | 120 µM
7 | CC(C)CCCC(C)[C@H]1CC[C@H]2[C@@H]3CCC4C[C@@H](CCC=C(c5cc(Cl)c(O)c(C(=O)O)c5)c5cc(Cl)c(O)c(C(=O)O)c5)CC[C@]4(C)[C@H]3CC[C@]12C (some centres undefined) | 5 µM | 18 µM | – | –
8 | CC(C)CCCC(C)[C@H]1CC[C@H]2[C@@H]3CCC4CC(C=C(c5cccc6ccc(S(=O)(=O)O)cc56)c5cccc6ccc(S(=O)(=O)O)cc56)CC[C@]4(C)[C@H]3CC[C@]12C (some centres undefined) | 25 µM | 10 µM | – | 125 µM
9 | CC(C)CCCC(C)[C@H]1CC[C@H]2[C@@H]3CC[C@@H]4CC(C=C(c5cccc6cc(S(=O)(=O)O)ccc56)c5cccc6cc(S(=O)(=O)O)ccc56)CC[C@]4(C)[C@H]3CC[C@]12C (some centres undefined) | 13 µM | 26 µM | – | –
10 | C[C@]12CC[C@H]3[C@@H](CCC4CC(C=C(c5cccc6cc(S(=O)(=O)O)ccc56)c5cccc6cc(S(=O)(=O)O)ccc56)CC[C@@]43C)[C@@H]1CC[C@@H]2O (some centres undefined) | 24 µM | 83 µM | – | –
11 | CCCCCCCCCCCCCCCCC=C(c1cccc2cc(S(=O)(=O)O)ccc12)c1cccc2cc(S(=O)(=O)O)ccc12 | – | 192 µM | – | –
12 | O=S(=O)(O)c1ccc2c(C(=CCCc3ccc4c(c3)CCc3ccccc3-4)c3cccc4cc(S(=O)(=O)O)ccc34)cccc2c1 | 49 µM | 292 µM | – | –
13 | CCCCCCCCCCCCCCCCC1(C)CCc2c(C)c(OCCC=C(c3cccc4cc(S(=O)(=O)O)ccc34)c3cccc4cc(S(=O)(=O)O)ccc34)c(C)c(C)c2O1 (centres undefined) | 5 µM | 25 µM | – | –
14 | CC(C)CCCC(C)[C@H]1CC[C@H]2[C@@H]3CCC4CC(CCC=C(c5cccc6cc(S(=O)(=O)O)ccc56)c5cccc6cc(S(=O)(=O)O)ccc56)CC[C@]4(C)[C@H]3CC[C@]12C (stereo in doubt) | 9 µM | 18 µM | – | –

The next lines start with results.

Row | IC50 [1] | IC50 [2] | IC50 (CCRF-CEM [4]) | Structure (SMILES) | CC50 (CCRF-CEM [3])
15 | 23 µM | 41 µM | – | CCCCCCCC1(C)CCc2c(C)c(OCCC=C(c3cccc4cc(S(=O)(=O)O)ccc34)c3cccc4cc(S(=O)(=O)O)ccc34)c(C)c(C)c2O1 (centres undefined) | –
16 | 6 µM | 31 µM | – | CC(C)CCCC(C)[C@H]1CC[C@H]2[C@@H]3CCC4CC(OCCC=C(c5cccc6cc(S(=O)(=O)O)ccc56)c5cccc6cc(S(=O)(=O)O)ccc56)CC[C@]4(C)[C@H]3CC[C@]12C (some centres undefined) | –
17 | 39 µM | 10 µM | – | CC(C)CCCC(C)[C@H]1CC[C@H]2[C@@H]3CCC4CC(C=C(c5ccc(S(=O)(=O)O)cc5)c5ccc(S(=O)(=O)O)cc5)CC[C@]4(C)[C@H]3CC[C@]12C (some centres undefined) | 56 µM
18 | – | 62 µM | Flat dose response | CC(C)CCCC(C)[C@H]1CC[C@H]2[C@@H]3CCC4CC(C=C(c5cccc(S(=O)(=O)O)c5)c5cccc(S(=O)(=O)O)c5)CC[C@]4(C)[C@H]3CC[C@]12C (some centres undefined) | –
19 | 6 µM | 16 µM | – | CC(C)CCCC(C)[C@H]1CC[C@H]2[C@@H]3CCC4CC(C=C(c5cccc6cc(S(=O)(=O)O)ccc56)c5cccc6cc(S(=O)(=O)O)ccc56)CC[C@]4(C)[C@H]3CC[C@]12C (some centres undefined) | –
20 | 12 µM | 33 µM | – | C=CCO[C@H]1CC[C@H]2[C@@H]3CCC4CC(C=C(c5cccc6cc(S(=O)(=O)O)ccc56)c5cccc6cc(S(=O)(=O)O)ccc56)CC[C@]4(C)[C@H]3CC[C@]12C (some centres undefined) | 100 µM
21 | 47 µM | 13 µM | – | CC(C)CCCC(C)[C@H]1CC[C@H]2[C@@H]3CCC4CC(CCC=C(c5ccc(S(=O)(=O)O)cc5)c5ccc(S(=O)(=O)O)cc5)CC[C@]4(C)[C@H]3CC[C@]12C (some centres undefined) | 135 µM
22 | 52 µM | 130 µM | – | O=S(=O)(O)c1ccc2c(C(=CC3CCCCCCCCCCCCCC3)c3cccc4cc(S(=O)(=O)O)ccc34)cccc2c1 | –
23 | 7 µM | 9 µM | – | CC(C)CCCC(C)[C@H]1CC[C@H]2[C@@H]3CCC4CC(CCC=C(c5cccc6cc(S(=O)(=O)O)ccc56)c5cccc6cc(S(=O)(=O)O)ccc56)CC[C@]4(C)[C@H]3CC[C@]12C (stereo in doubt; 1401) | –
